What was measured:
Assay type in all cases: cell-based, rat
endogenous IRE1α [1] = assay: XBP1 mRNA splicing in INS-1 cells under ER stress; conditions: thapsigargin (Tg) 6 nM
Procedure: (§1) FIGS. 5A-5E. […] (FIG. 5C) EtBr-stained agarose gel of XBP1 complementary DNA (cDNA) amplicons from the INS-1 cells described in (B).
(§2) To further explore how IRE1α modulators affect the kinase and RNase activities of endogenous IRE1α under ER stress, in vivo studies using INS-1 rat insulinoma cell lines, which are derived from insulin-producing pancreatic β-cell tumors and contain large well-developed ERs, were conducted.

IRE1α (WT) = assay: Dox-induced IRE1α (WT) hyperactivation in INS-1 stable lines; conditions: STF-083010 at 50 µM
From the text: These aforementioned terminal UPR signaling events can be completely mimicked simply by controlled over-expression of IRE1α, in the complete absence of upstream ER stress. Tetracycline-inducible isogenic INS-1 stable cell lines expressing WT IRE1α were generated. Induced with doxycycline (dox) the transgenic IRE1α proteins oligomerize, spontaneously trans-autophosphorylate and trigger XBP1 mRNA splicing. The transgenic systems are finely tuneable, with increasing [Dox] causing progressively greater IRE1α induction (the transgenic IRE1α protein is Myc-tagged). Phospho/Myc IRE1α ratios are finely controllable (and measureable) with increasing [Dox], as is XBP1 mRNA splicing. […] These include reduction of miR-17 and Ins1 mRNA, induction of CHOP mRNA, induction and proteolytic cleavage of caspases 1,2, and 3, and apoptosis as measured by Annexin-V staining. […]
For protein analysis, cells were lysed in M-PER buffer (Thermo Scientific) plus complete EDTA-free protease inhibitor (Roche) and phosphatase inhibitor cocktail (Sigma). The concentration of samples was determined using BCA Protein Assay (Thermo). […] Antibody binding was detected by using near-infrared-dye-conjugated secondary antibodies (Licor) on the LI-COR Odyssey scanner or visualized by capturing on a CL-XPosure film using ECL SuperSignal West Dura Extended Duration Substrate (both from Thermo Scientific).

endogenous IRE1α [2] = assay: IRE1α auto-phosphorylation immunoblot in INS-1 cells under ER stress; conditions: ER stress (Tg)
Procedure: as §1, §2
For protein analysis, cells were lysed in M-PER buffer (Thermo Scientific) plus complete EDTA-free protease inhibitor (Roche) and phosphatase inhibitor cocktail (Sigma). The concentration of samples was determined using BCA Protein Assay (Thermo). […] Gels were run using MES buffer and transferred onto nitrocellulose transfer membrane using an XCell II™ Blot Module. Blocking, antibody incubation, and washing were done in PBS or TBS with 0.05% Tween-20 (v/v) and 5% (w/v) non-fat dry milk or BSA, or blocking buffer (Licor-Odyssey). Antibodies used were: mouse anti-Actin (Sigma-Aldrich); rabbit anti-cleaved Caspase-2 (Abcam); mouse anti-GAPDH, anti-c-Myc, anti-rabbit, anti-proinsulin, and anti-IRE1α (Santa Cruz Biotechnology); anti-phospho-IRE1α and anti-full length Caspase-2 (Novus Biologicals); and rabbit anti-Caspase-3, anti-JNK, anti-eIF2a, anti-phospho-eIF2a, and mouse anti-phospho-JNK (Cell Signaling). Antibody binding was detected by using near-infrared-dye-conjugated secondary antibodies (Licor) on the LI-COR Odyssey scanner or visualized by capturing on a CL-XPosure film using ECL SuperSignal West Dura Extended Duration Substrate (both from Thermo Scientific).

INS-1 cells = assay: Annexin V apoptosis of INS-1 cells under ER stress
Procedure: FIGS. 19A-19D. KIRA6 inhibits Terminal UPR outputs of IRE1α to protect against ER stress-induced apoptosis. […] (FIG. 19B) Q-PCR for Ins1 mRNA in INS-1 IRE1α (WT) cells treated with Dox (5 ng/ml)−/+STF-083010 (50 M) over the indicated timecourse. (FIG. 19C) Annexin V staining of INS-1 cells after 72 hr with indicated [Tm]−/+STF-083010 (50 M). (FIG. 19D) Annexin V staining of INS-1 cells after 72 hr with Tm (0.2 μg/ml), STF-083010 (1 or 5 M), and KIRA6 (0.05 M) as indicated. Data plotted as mean+/−SD. P-values: *<0.05, **<0.01, ***<0.005.
For assaying apoptosis by Annexin V staining, cells were plated in 12-well plates overnight. Cells were then treated with various reagents for indicated time periods. On the day of flow cytometry analysis, cells were trypsinized and washed in PBS and resuspended in Annexin V binding buffer with Annexin-V FITC (BD Pharmingen™). Flow cytometry was performed on a Becton Dickinson LSRII flow cytometer.

O=S(=O)(N=Cc1c(O)ccc2ccccc12)c1cccs1 [STF-083010, N-[(2-Hydroxy-1-naphthalenyl)methylene]-2-thiophenesulfonamide, reference compound]
XBP1 mRNA splicing (IRE1α RNase activity) in INS-1 cells (endogenous IRE1α [1]): inhibits XBP1 splicing in a dose-dependent manner
Ins1 mRNA decay under IRE1α hyperactivation (IRE1α (WT)): decreases Ins1 mRNA decay under IRE1α hyperactivation
endogenous IRE1α auto-phosphorylation in INS-1 cells (endogenous IRE1α [2]): does not prevent IRE1α auto-phosphorylation
endogenous IRE1α auto-phosphorylation in INS-1 cells (endogenous IRE1α [2]; listed as STF): does not inhibit IRE1α auto-phosphorylation
cytoprotection under Tm, single agent at the dose of the combination (INS-1 cells; STF-083010 1 M or KIRA6 50 nM alone): sub-therapeutic individually
apoptosis by Tm (INS-1 cells; STF-083010 at 50 µM): decreases

Reference: patent publication US20170165259A1, “COMBINED MODULATION OF IRE1” (THE REGENTS OF THE UNIVERSITY OF CALIFORNIA, priority 2014, published 2017)
